Test system: HIV in the HTLV-1 transformed cell line MT-4
Test: organism not typed
Format: cell-based
Details: MT4, 96 h, MT-4 cells; luciferase/cell titer glo readout after 96 hours; 10 point dose response

Cc1c(-c2c(C)c3c(c(C)c2[C@H](OC(C)(C)C)C(=O)O)CN(C(=O)N2CCCC(F)(F)C2)C3)cc(F)c2c1CCCO2 (atropisomer, axis not shown) [Example 102, (S)-2-(tert-butoxy)-2-((R)-2-(3,3-difluoropiperidine-1-carbonyl)-6-(8-fluoro-5-methylchroman-6-yl)-4,7-dimethylisoindolin-5-yl)acetic acid]
IC50: 2 nM

Cc1c(-c2c(C)c3c(c(C)c2[C@H](OC(C)(C)C)C(=O)O)CN(Cc2cccc(F)c2)C3)cc(F)c2c1CCCO2 (atropisomer, axis not shown; (M)) [Example 8, (2S)(M)-2-(tert-Butoxy)-2-(-6-(8-fluoro-5-methylchroman-6-yl)-2-(3-fluorobenzyl)-4,7-dimethylisoindolin-5-yl)acetic acid]
IC50: 5 nM

Cc1c(-c2c(C)c3c(c(C)c2[C@H](OC(C)(C)C)C(=O)O)CN(C(=O)N2CCC(F)(F)C2)C3)cc(F)c2c1CCCO2 (atropisomer, axis not shown; (M)) [Example 100, (2S)-2-(tert-Butoxy)-2-(2-(3,3-difluoropyrrolidine-1-carbonyl)-6-(M)-(8-fluoro-5-methylchroman-6-yl)-4,7-dimethylisoindolin-5-yl)acetic acid]
IC50: 5 nM

Cc1c(-c2c(C)c3c(c(C)c2[C@H](OC(C)(C)C)C(=O)O)CN(C(=O)N2CCCCC2)C3)cc(F)c2c1CCCO2 (atropisomer, axis not shown; (M)) [Example 101, (2S)-2-(tert-butoxy)-2-(6-(M)-(8-fluoro-5-methylchroman-6-yl)-4,7-dimethyl-2-(piperidine-1-carbonyl)isoindolin-5-yl)acetic acid]
IC50: 3 nM

Cc1c(-c2c(C)c3c(c(C)c2[C@H](OC(C)(C)C)C(=O)O)CN(C(=O)c2cccc(F)c2)C3)cc(F)c2c1CCCO2 (atropisomer, axis not shown; (M)) [Example 103, (2S)-2-(tert-butoxy)-2-((M)6-(8-fluoro-5-methylchroman-6-yl)-2-(3-fluorobenzoyl)-4,7-dimethylisoindolin-5-yl)acetic acid]
IC50: 2 nM

Cc1c(-c2c(C)c3c(c(C)c2[C@H](OC(C)(C)C)C(=O)O)CN(C(=O)CC(C)(C)C)C3)cc(F)c2c1CCCO2 (atropisomer, axis not shown; (M)) [Example 104, (S)-2-(tert-butoxy)-2-((M)-2-(3,3-dimethylbutanoyl)-6-(8-fluoro-5-methylchroman-6-yl)-4,7-dimethylisoindolin-5-yl)acetic acid]
IC50: 2 nM

Cc1c(-c2c(C)c3c(c(C)c2[C@H](OC(C)(C)C)C(=O)O)CN(C(=O)C2CCCCC2)C3)cc(F)c2c1CCCO2 (atropisomer, axis not shown; (M)) [Example 137, (S)-2-(tert-butoxy)-2-((M)-2-(cyclohexanecarbonyl)-6-(8-fluoro-5-methylchroman-6-yl)-4,7-dimethylisoindolin-5-yl)acetic acid]
IC50: 2 nM

Cc1c(-c2c(C)c3c(c(C)c2[C@H](OC(C)(C)C)C(=O)O)CN(C(=O)c2cccc4c2OCO4)C3)cc(F)c2c1CCCO2 (atropisomer, axis not shown; (M)) [Example 138, (S)-2-((M)-2-(benzo[d][1,3]dioxole-4-carbonyl)-6-(8-fluoro-5-methylchroman-6-yl)-4,7-dimethylisoindolin-5-yl)-2-(tert-butoxy)acetic acid]
IC50: 2 nM

COc1cccc(C(=O)N2Cc3c(C)c(-c4cc(F)c5c(c4C)CCCO5)c([C@H](OC(C)(C)C)C(=O)O)c(C)c3C2)c1C (atropisomer, axis not shown; (M)) [Example 139, (S)-2-(tert-butoxy)-2-((M)-6-(8-fluoro-5-methylchroman-6-yl)-2-(3-methoxy-2-methylbenzoyl)-4,7-dimethylisoindolin-5-yl)acetic acid]
IC50: 37 nM

COc1cc(F)cc(C(=O)N2Cc3c(C)c(-c4cc(F)c5c(c4C)CCCO5)c([C@H](OC(C)(C)C)C(=O)O)c(C)c3C2)c1 (atropisomer, axis not shown; (M)) [Example 140, (S)-2-(tert-butoxy)-2-((M)-2-(3-fluoro-5-methoxybenzoyl)-6-(8-fluoro-5-methylchroman-6-yl)-4,7-dimethylisoindolin-5-yl)acetic acid]
IC50: 2 nM

Cc1c(F)cccc1C(=O)N1Cc2c(C)c(-c3cc(F)c4c(c3C)CCCO4)c([C@H](OC(C)(C)C)C(=O)O)c(C)c2C1 (atropisomer, axis not shown; (M)) [Example 141, (S)-2-(tert-butoxy)-2-((M)-2-(3-fluoro-2-methylbenzoyl)-6-(8-fluoro-5-methylchroman-6-yl)-4,7-dimethylisoindolin-5-yl)acetic acid]
IC50: 4 nM

Cc1ncccc1C(=O)N1Cc2c(C)c(-c3cc(F)c4c(c3C)CCCO4)c([C@H](OC(C)(C)C)C(=O)O)c(C)c2C1 (atropisomer, axis not shown; (M)) [Example 142, (S)-2-(tert-butoxy)-2-((M)-6-(8-fluoro-5-methylchroman-6-yl)-4,7-dimethyl-2-(2-methylnicotinoyl)isoindolin-5-yl)acetic acid]
IC50: 31 nM

COc1cncc(C(=O)N2Cc3c(C)c(-c4cc(F)c5c(c4C)CCCO5)c([C@H](OC(C)(C)C)C(=O)O)c(C)c3C2)c1 (atropisomer, axis not shown; (M)) [Example 143, (S)-2-(tert-butoxy)-2-((M)-6-(8-fluoro-5-methylchroman-6-yl)-2-(5-methoxynicotinoyl)-4,7-dimethylisoindolin-5-yl)acetic acid]
IC50: 4 nM

Cc1ccc(C(=O)N2Cc3c(C)c(-c4cc(F)c5c(c4C)CCCO5)c([C@H](OC(C)(C)C)C(=O)O)c(C)c3C2)cc1F (atropisomer, axis not shown; (M)) [Example 144, (S)-2-(tert-butoxy)-2-((M)-2-(3-fluoro-4-methylbenzoyl)-6-(8-fluoro-5-methylchroman-6-yl)-4,7-dimethylisoindolin-5-yl)acetic acid]
IC50: 5 nM

Cc1cc(C(=O)N2Cc3c(C)c(-c4cc(F)c5c(c4C)CCCO5)c([C@H](OC(C)(C)C)C(=O)O)c(C)c3C2)ccc1F (atropisomer, axis not shown; (M)) [Example 145, (S)-2-(tert-butoxy)-2-((M)-2-(4-fluoro-3-methylbenzoyl)-6-(8-fluoro-5-methylchroman-6-yl)-4,7-dimethylisoindolin-5-yl)acetic acid]
IC50: 2 nM

Cc1ccccc1C(=O)N1Cc2c(C)c(-c3cc(F)c4c(c3C)CCCO4)c([C@H](OC(C)(C)C)C(=O)O)c(C)c2C1 (atropisomer, axis not shown; (M)) [Example 146, (S)-2-(tert-butoxy)-2-((M)-6-(8-fluoro-5-methylchroman-6-yl)-4,7-dimethyl-2-(2-methylbenzoyl)isoindolin-5-yl)acetic acid]
IC50: 3 nM

Cc1c(-c2c(C)c3c(c(C)c2[C@H](OC(C)(C)C)C(=O)O)CN(C(=O)c2cccc(Cl)c2)C3)cc(F)c2c1CCCO2 (atropisomer, axis not shown; (M)) [Example 147, (S)-2-(tert-butoxy)-2-((M)-2-(3-chlorobenzov)-6-(8-fluoro-5-methylchroman-6-yl)-4,7-dimethylisoindolin-5-yl)acetic acid]
IC50: 13 nM

COc1cccc(C(=O)N2Cc3c(C)c(-c4cc(F)c5c(c4C)CCCO5)c([C@H](OC(C)(C)C)C(=O)O)c(C)c3C2)c1F (atropisomer, axis not shown; (M)) [Example 148, (S)-2-(tert-butoxy)-2-((M)-2-(2-fluoro-3-methoxybenzoyl)-6-(8-fluoro-5-methylchroman-6-yl)-4,7-dimethylisoindolin-5-yl)acetic acid]
IC50: 9 nM

Cc1cccc(C(=O)N2Cc3c(C)c(-c4cc(F)c5c(c4C)CCCO5)c([C@H](OC(C)(C)C)C(=O)O)c(C)c3C2)c1 (atropisomer, axis not shown; (M)) [Example 149, (S)-2-(tert-butoxy)-2-((M)-6-(8-fluoro-5-methylchroman-6-yl)-4,7-dimethyl-2-(3-methylbenzoyl)isoindolin-5-yl)acetic acid]
IC50: 2 nM

COc1ccc(F)cc1C(=O)N1Cc2c(C)c(-c3cc(F)c4c(c3C)CCCO4)c([C@H](OC(C)(C)C)C(=O)O)c(C)c2C1 (atropisomer, axis not shown; (M)) [Example 150, (S)-2-(tert-butoxy)-2-((M)-2-(5-fluoro-2-methoxybenzoyl)-6-(8-fluoro-5-methylchroman-6-yl)-4,7-dimethylisoindolin-5-yl)acetic acid]
IC50: 4 nM

Cc1c(-c2c(C)c3c(c(C)c2[C@H](OC(C)(C)C)C(=O)O)CN(C(=O)c2cccc4sccc24)C3)cc(F)c2c1CCCO2 (atropisomer, axis not shown; (M)) [Example 151, (S)-2-((M)-2-(benzo[b]thiophene-4-carbonyl)-6-(8-fluoro-5-methylchroman-6-yl)-4,7-dimethylisoindolin-5-yl)-2-(tert-butoxy)acetic acid]
IC50: 5 nM

Cc1c(-c2c(C)c3c(c(C)c2[C@H](OC(C)(C)C)C(=O)O)CN(C(=O)c2cccc4c2OCC4)C3)cc(F)c2c1CCCO2 (atropisomer, axis not shown; (M)) [Example 152, (S)-2-(tert-butoxy)-2-((M)-2-(2,3-dihydrobenzofuran-7-carbonyl)-6-(8-fluoro-5-methylchroman-6-yl)-4,7-dimethylisoindolin-5-yl)acetic acid]
IC50: 2 nM

Cc1c(-c2c(C)c3c(c(C)c2[C@H](OC(C)(C)C)C(=O)O)CN(C(=O)c2cccc4c2OCCO4)C3)cc(F)c2c1CCCO2 (atropisomer, axis not shown; (M)) [Example 153, (S)-2-(tert-butoxy)-2-((M)-2-(2,3-dihydrobenzo[b][1,4]dioxine-5-carbonyl)-6-(8-fluoro-5-methylchroman-6-yl)-4,7-dimethylisoindolin-5-yl)acetic acid]
IC50: 4 nM

Cc1c(-c2c(C)c3c(c(C)c2[C@H](OC(C)(C)C)C(=O)O)CN(C(=O)c2ccc4c(cnn4C)c2)C3)cc(F)c2c1CCCO2 (atropisomer, axis not shown; (M)) [Example 154, (S)-2-(tert-butoxy)-2-((M)-6-(8-fluoro-5-methylchroman-6-yl)-4,7-dimethyl-2-(1-methyl-1H-indazole-5-carbonyl)isoindolin-5-yl)acetic acid]
IC50: 8 nM

Source: US10112899B2 (ViiV HEALTHCARE UK LIMITED, priority 2014, dated 2018)
